Results from ChEMBL document CHEMBL1782045, “Discovery, synthesis, and investigation of the antitumor activity of novel piperazinylpyrimidine derivatives” (Eur J Med Chem, 2011).

Columns and labels:
[1] = test system: SK-MEL-5; experiment: Cytotoxicity against human SK-MEL-5 cells after 48 hrs by sulforhodamine B assay; type: cell-based; settings: sk-mel-5, 48 h
[2] = test system: NCI-H322M; experiment: Cytotoxicity against human NCI-H322M cells after 48 hrs by sulforhodamine B assay; type: cell-based
[3] = test system: M14; experiment: Cytotoxicity against human M14 cells after 48 hrs by sulforhodamine B assay; type: cell-based; settings: m14, 48 h
[4] = test system: SNB-75; experiment: Growth inhibition of human SNB75 cells after 48 hrs by sulforhodamine B assay; type: functional; settings: SNB-75, 48 h
[5] = test system: Hs-578T; experiment: Cytotoxicity against human Hs578T cells after 48 hrs by sulforhodamine B assay; type: cell-based
[6] = test system: HL-60(TB); experiment: Cytotoxicity against human HL-60(TB) cells after 48 hrs by sulforhodamine B assay; type: cell-based
[7] = test system: T47D; experiment: Growth inhibition of human T47D cells after 48 hrs by sulforhodamine B assay; type: functional
[8] = target: Receptor-type tyrosine-protein kinase FLT3 (Homo sapiens) (UniProt P36888); experiment: Binding affinity to human FLT3 at 10 uM incubated for 1 hr by kinase binding assay relative to untreated control
[9] = target: Casein kinase I isoform gamma-3 (Homo sapiens) (UniProt Q9Y6M4); experiment: Binding affinity to human CSNK1G3 at 10 uM incubated for 1 hr by kinase binding assay relative to untreated control
[10] = target: Platelet-derived growth factor receptor beta (Homo sapiens) (UniProt P09619); experiment: Binding affinity to human PDGFRB at 10 uM incubated for 1 hr by kinase binding assay relative to untreated control
[11] = test system: RXF 393; experiment: Cytotoxicity against human RXF393 cells after 48 hrs by sulforhodamine B assay; type: cell-based; settings: rxf 393, 48 h
[12] = test system: COLO 205; experiment: Cytotoxicity against human COLO205 cells after 48 hrs by sulforhodamine B assay; type: cell-based; settings: colo 205, 48 h
[13] = target: Casein kinase I isoform delta (Homo sapiens) (UniProt P48730); experiment: Binding affinity to human CSNK1D at 10 uM incubated for 1 hr by kinase binding assay relative to untreated control
[14] = target: RAC-beta serine/threonine-protein kinase (Homo sapiens) (UniProt P31751); experiment: Inhibition of human PKBbeta using gamma-33P-ATP as substrate assessed as enzyme functional activity at 1 uM by scintillation counting relative to untreated control; set-up: scale not given: the % may be the effect or the level left
[15] = test system: OVCAR-5; experiment: Cytotoxicity against human OVCAR5 cells after 48 hrs by sulforhodamine B assay; type: cell-based; settings: ovcar-5, 48 h
[16] = test system: SF-539; experiment: Growth inhibition of human SF539 cells after 48 hrs by sulforhodamine B assay; type: functional; settings: SF-539, 48 h
[17] = test system: NCI-H226; experiment: Cytotoxicity against human NCI-H226 cells after 48 hrs by sulforhodamine B assay; type: cell-based; settings: nci-h226, 48 h
[18] = test system: MDA-MB-435; experiment: Growth inhibition of human MDA-MB-435 cells after 48 hrs by sulforhodamine B assay; type: functional; settings: MDA-MB-435, 48 h
[19] = test system: T1, Receptor-type tyrosine-protein kinase FLT3 (Homo sapiens), P36888 [K663Q]; experiment: Binding affinity to human FLT3 K663Q mutant at 10 uM incubated for 1 hr by kinase binding assay relative to untreated control
T1 sequence (whole entry): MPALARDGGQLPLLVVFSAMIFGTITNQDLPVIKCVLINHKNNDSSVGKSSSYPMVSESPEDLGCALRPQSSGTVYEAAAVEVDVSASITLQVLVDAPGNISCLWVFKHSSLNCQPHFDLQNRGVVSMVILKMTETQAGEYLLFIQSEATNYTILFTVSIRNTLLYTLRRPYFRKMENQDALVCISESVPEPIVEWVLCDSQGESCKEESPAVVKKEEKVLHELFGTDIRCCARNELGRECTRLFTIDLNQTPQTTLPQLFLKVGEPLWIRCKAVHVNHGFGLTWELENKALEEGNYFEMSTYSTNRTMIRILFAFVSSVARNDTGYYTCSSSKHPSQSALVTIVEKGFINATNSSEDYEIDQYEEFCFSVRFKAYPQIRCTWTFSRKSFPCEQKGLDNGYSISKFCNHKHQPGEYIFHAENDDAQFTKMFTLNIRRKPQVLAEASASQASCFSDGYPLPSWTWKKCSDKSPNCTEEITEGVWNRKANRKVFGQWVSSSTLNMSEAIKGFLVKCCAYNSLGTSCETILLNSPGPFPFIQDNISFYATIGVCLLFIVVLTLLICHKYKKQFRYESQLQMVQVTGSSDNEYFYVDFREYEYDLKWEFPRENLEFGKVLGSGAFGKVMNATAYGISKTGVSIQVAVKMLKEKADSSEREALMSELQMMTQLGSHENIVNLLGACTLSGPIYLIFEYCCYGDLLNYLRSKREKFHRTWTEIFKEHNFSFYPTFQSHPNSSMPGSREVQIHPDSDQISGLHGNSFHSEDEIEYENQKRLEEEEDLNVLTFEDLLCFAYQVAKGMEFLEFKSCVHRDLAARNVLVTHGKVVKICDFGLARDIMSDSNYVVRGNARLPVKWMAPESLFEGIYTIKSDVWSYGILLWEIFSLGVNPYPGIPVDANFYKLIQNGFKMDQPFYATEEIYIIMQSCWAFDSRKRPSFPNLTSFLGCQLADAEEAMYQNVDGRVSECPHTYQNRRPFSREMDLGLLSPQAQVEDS

[20] = test system: Mast/stem cell growth factor receptor Kit (Homo sapiens), P10721 [D816H]; experiment: Inhibition of human KIT D816H using gamma-33P-ATP as substrate assessed as enzyme functional activity at 1 uM by scintillation counting relative to untreated control; set-up: scale not given: the % may be the effect or the level left
[21] = test system: TK-10; experiment: Growth inhibition of human TK10 cells after 48 hrs by sulforhodamine B assay; type: functional; settings: TK-10, 48 h

Chain of Mast/stem cell growth factor receptor Kit (Homo sapiens), P10721 [D816H] (P10721 whole entry D816H): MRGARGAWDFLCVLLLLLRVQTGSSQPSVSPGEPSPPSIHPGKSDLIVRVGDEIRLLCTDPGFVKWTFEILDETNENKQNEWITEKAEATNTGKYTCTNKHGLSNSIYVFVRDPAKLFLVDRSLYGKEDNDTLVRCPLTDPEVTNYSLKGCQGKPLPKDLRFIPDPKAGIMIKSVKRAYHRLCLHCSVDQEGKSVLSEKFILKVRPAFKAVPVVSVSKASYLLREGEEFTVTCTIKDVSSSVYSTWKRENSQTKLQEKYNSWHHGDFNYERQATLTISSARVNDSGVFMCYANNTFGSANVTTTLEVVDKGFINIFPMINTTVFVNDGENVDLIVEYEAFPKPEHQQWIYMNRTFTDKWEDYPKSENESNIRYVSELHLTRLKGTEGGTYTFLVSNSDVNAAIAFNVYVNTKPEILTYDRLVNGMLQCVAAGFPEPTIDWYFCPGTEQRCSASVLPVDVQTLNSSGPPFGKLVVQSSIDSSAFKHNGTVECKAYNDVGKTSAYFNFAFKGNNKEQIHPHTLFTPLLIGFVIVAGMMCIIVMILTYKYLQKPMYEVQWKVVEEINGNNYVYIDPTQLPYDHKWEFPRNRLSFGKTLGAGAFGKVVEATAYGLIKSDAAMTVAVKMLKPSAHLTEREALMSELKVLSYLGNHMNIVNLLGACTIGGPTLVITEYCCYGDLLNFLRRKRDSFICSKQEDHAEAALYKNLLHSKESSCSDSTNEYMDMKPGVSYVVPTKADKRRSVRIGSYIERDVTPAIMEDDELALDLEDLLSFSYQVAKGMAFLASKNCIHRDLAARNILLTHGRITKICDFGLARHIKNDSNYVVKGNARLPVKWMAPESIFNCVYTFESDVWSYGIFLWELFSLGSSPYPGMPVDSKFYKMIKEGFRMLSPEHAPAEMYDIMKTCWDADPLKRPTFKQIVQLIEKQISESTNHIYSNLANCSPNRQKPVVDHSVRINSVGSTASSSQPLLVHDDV
Chain of Casein kinase I isoform delta (Homo sapiens) (P48730 whole entry, looked up, canonical isoform): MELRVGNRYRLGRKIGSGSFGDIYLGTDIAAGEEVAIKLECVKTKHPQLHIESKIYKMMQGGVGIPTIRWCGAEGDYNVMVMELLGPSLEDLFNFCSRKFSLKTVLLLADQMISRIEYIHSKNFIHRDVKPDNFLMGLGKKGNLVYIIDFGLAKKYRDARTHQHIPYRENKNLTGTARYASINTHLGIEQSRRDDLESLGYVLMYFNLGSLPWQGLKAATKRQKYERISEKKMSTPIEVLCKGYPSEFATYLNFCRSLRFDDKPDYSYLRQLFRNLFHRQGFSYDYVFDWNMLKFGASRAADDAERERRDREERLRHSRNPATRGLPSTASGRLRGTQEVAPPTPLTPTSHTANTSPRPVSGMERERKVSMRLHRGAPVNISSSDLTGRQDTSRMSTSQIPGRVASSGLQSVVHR
Chain of RAC-beta serine/threonine-protein kinase (Homo sapiens) (P31751 whole entry): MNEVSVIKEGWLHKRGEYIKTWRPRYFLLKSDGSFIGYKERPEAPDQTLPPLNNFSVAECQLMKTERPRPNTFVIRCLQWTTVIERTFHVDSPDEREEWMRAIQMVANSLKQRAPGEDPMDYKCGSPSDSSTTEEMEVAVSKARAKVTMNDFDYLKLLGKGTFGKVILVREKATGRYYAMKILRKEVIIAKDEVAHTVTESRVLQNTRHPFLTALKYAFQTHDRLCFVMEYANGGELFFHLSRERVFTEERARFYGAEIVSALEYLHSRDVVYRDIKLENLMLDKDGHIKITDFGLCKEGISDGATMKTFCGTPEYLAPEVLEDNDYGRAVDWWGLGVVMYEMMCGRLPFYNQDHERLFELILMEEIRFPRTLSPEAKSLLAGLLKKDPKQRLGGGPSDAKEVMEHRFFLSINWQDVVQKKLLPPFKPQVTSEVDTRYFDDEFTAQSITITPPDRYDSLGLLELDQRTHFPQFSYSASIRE
Chain of Platelet-derived growth factor receptor beta (Homo sapiens) (P09619 whole entry): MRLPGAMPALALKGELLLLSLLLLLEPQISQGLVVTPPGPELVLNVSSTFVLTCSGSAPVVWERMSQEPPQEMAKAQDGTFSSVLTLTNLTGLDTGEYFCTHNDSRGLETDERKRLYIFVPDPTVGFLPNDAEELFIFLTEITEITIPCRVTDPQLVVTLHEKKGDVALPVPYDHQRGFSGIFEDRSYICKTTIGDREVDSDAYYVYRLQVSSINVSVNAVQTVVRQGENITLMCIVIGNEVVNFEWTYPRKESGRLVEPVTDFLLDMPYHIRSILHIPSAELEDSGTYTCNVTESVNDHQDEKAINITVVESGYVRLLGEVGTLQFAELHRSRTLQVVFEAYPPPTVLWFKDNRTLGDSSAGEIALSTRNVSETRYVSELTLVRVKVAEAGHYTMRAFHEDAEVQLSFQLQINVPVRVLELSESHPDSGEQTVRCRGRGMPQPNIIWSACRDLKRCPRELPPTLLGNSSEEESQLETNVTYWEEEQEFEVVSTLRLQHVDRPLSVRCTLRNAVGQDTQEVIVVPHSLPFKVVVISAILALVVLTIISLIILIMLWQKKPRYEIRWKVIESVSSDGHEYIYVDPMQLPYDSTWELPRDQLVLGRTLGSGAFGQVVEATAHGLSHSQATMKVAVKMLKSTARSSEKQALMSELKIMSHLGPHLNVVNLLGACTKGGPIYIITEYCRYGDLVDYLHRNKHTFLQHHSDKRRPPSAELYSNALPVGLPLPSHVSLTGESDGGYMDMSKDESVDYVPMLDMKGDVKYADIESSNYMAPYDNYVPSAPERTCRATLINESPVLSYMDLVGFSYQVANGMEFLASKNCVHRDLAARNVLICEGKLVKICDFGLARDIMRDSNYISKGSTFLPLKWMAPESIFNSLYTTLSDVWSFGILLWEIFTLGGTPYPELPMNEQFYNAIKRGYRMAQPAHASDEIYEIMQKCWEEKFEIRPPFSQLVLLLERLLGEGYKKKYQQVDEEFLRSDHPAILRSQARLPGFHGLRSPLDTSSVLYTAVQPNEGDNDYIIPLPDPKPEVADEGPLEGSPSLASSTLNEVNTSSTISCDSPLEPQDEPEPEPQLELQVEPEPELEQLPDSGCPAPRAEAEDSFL
Chain of Casein kinase I isoform gamma-3 (Homo sapiens) (Q9Y6M4 whole entry, looked up, canonical isoform): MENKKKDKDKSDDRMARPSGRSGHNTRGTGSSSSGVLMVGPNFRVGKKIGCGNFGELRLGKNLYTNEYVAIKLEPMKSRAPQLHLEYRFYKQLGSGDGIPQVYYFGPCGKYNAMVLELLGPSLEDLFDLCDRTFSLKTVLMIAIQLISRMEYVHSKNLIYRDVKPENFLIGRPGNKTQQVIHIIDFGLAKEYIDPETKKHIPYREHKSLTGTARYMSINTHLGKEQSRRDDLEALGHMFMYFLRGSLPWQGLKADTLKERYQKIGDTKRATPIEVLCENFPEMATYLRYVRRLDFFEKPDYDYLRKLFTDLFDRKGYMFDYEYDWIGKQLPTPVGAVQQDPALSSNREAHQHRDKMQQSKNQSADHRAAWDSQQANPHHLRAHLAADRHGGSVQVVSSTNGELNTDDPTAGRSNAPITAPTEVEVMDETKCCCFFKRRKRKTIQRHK

| SMILES | LC50 [1] | LC50 [2] | LC50 [3] | TGI [4] | LC50 [5] | LC50 [6] | TGI [7] | Activity [8] | Activity [9] | Activity [10] | LC50 [11] | LC50 [12] | Activity [13] | Activity [14] | LC50 [15] | TGI [16] | LC50 [17] | TGI [18] | Activity [19] | Activity [20] | other results |
| --- | --- | --- | --- | --- | --- | --- | --- | --- | --- | --- | --- | --- | --- | --- | --- | --- | --- | --- | --- | --- | --- |
| CCc1cnc(N2CCN(C(=O)c3ccc(CNc4ncnc5ccccc45)cc3)CC2)nc1 | 20.8 µM | > 100 µM | 93.7 µM | 58.2 µM | > 100 µM | > 100 µM | > 100 µM | > 50% | 24% | > 50% | > 100 µM | > 100 µM | 23% | 82% | > 100 µM | > 100 µM | > 100 µM | > 100 µM | > 50% | 100% | TGI [21]: > 100 µM |
| c1ccc(Cc2cnc(N3CCN(c4ncnc5ccccc45)CC3)nc2)cc1 | 37.7 µM | > 100 µM | 51.6 µM | 78.2 µM | > 100 µM | > 100 µM | 45.5 µM | 8.4% | > 50% | 4.1% | > 100 µM | > 100 µM | 26% | 89% | > 100 µM | 28.5 µM | > 100 µM | 27.5 µM | 4% | 30% | TGI [21]: 60.8 µM |
| O=C(c1cccc(Nc2ncnc3ccccc23)c1)N1CCN(c2ncc(Cc3ccccc3)cn2)CC1 | 3.47 µM | > 100 µM | 4.68 µM | 5.89 µM | > 100 µM | 6.76 µM | 7.59 µM | > 50% | > 50% | > 50% | > 100 µM | 5.5 µM | 22% | 83% | > 100 µM | 4.9 µM | 7.94 µM | 2.14 µM | > 50% | 100% | TGI [21]: 6.17 µM |
